Measurements published in patent US20230135894A1, “MK2 DEGRADERS AND USES THEREOF” (Kymera Therapeutics, Inc., priority 2021, published 2023).

Columns and labels:
MK2 [1] = target: T1, MK2 (Homo sapiens, UniProt P49137); test: MK2 degradation in human SW1353 cells (MSD, 24 h); format: cell-based; design: endogenous in cells; host or cells: SW-1353 (ATCC HTB-94); settings: for Dmax: read-out: MK2 MSD SW 1353 24 h Dmax %; for DC50: read-out: MK2 MSD SW1353 degradation 24 h GMean External Abs DC50
T1 sequence (P49137 whole entry): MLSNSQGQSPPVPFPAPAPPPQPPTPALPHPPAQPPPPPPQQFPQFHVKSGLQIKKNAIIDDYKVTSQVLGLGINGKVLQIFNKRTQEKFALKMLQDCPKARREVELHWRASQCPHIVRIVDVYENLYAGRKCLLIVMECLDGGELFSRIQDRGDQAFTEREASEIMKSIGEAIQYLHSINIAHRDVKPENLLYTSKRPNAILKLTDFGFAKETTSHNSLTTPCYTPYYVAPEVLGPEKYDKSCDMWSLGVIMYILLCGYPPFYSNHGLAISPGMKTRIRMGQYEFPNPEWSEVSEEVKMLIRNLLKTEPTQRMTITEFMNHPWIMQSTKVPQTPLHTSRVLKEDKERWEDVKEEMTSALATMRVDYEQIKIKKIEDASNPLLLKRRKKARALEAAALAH
Description: MK2 Degradation in Human SW1353 Cells
The human chondrocyte cancer cell line SW-1353 (ATCC(HTB-94)) was cultured in 96 well plates (Corning 3894) at a density of 200,000 cells per well in 100 microlitres in complete growth medium of Leibovitz's L-15 Medium (Gibco) pus 10% fetal Bovine Serum (Corning) and Penicillin/Streptomycin (SolarBio) at 37 degrees Celsius. A serial dilution of each compound (usually 3 to 5 fold serial dilutions up to 10 separate concentration points) was added to individual wells from a 10 millimolar stock solution, at a background concentration of 0.1% DMSO and the cells were shaken at 600 rpm for 5 minutes and then were cultured for 24 hours at 37 degrees Celsius. Separately, a custom MSD (MesoScaleDiscovery, L15XA-3) plate for detection of human MK2 was prepared by coating the plate with the commercial AbCam ab247272 reagent in 1×Phosphate Buffered Saline at 40 microlitres per well and incubated at 4 degrees Celsius overnight. The next day, the MSD plate was washed with 150 microlitres of Tween buffered saline, blocked with MSD blocking buffer (3% Blocker A from MSD), and washed again.
(§1) The cell plate was centrifuged at 3,200 g for 5 minutes and the supernatant was discarded and 100 microlitres of RIPA lysis buffer (containing proteinase inhibitors, Boston BioProducts BP-115D) was added and the plate was sealed and shaken on ice for 20 minutes. The plate was centrifuged as before and 70 microlitres of sample lysate was added to the MSD plates and they were shaken at room temperature for 1 hour at 600 rpm. The MSD plate was washed 3 times as before and then the primary MK2 detection antibody (Santa Cruz sc-100393) was added at a final concentration of 1 microgram per ml at 25 microlitres per well and shaken at room temperature for 1 hour at 600 rpm.
(§2) After 3 more washes, the secondary detection antibody (SULFO-Tag anti rabbit antibody R32AB-5) was added at a final concentration of 1 microgram per ml at 25 microlitres per well and shaken at room temperature for 1 hour at 600 rpm. After 3 more washes, the 1×MSD (diluted from 5× concentrate with water) reading buffer was added at 150 microlitres per well and read on the MSD instrument Meso Sector S 600.
(§3) The inhibition/degradation curves and DC50 values were plotted and calculated using XL Fit (version v5.3.1.3) using equation 201 and a 4 parameter logistic model whereby fit=(A+((B−A)/(1+((x/C)D))) where A is the Bottom and B is the Top and C is the IC50 and D is the slope and high C is the signal for the DMSO treated cells and Low C is the signal is the signal for the lysis buffer.

MK2 [2] = target: T1, MK2; test: MK2 degradation in human THP-1 monocytic cells (MSD, 24 h); format: cell-based; design: endogenous in cells; settings: for Dmax: THP-1, THP-1 cells; for DC50: THP-1 cells, read-out: MK2 MSD THP-1 degradation 24 h GMean External Abs DC50
Description: MK2 Degradation in Human THP-1 Monoctyic Cells
The human monocytic cancer cell line THP-1 (ATCC (TIB-202)) was cultured in 96 well plates (Corning 3894) at a density of 200,000 cells per well in 100 microlitres in complete growth medium of RPMI 1640 (Gibco) pus 10% fetal Bovine Serum (Corning) and Penicillin/Streptomycin (SolarBio) at 37 degrees Celsius and 5% CO2. A serial dilution of each compound (usually 3 to 5 fold serial dilutions up to 10 separate concentration points) was added to individual wells from a 10 millimolar stock solution, at a background concentration of 0.1% DMSO and the cells were shaken at 600 rpm for 5 minutes and then were cultured for 24 hours at 37 degrees Celsius and 5% carbon dioxide. Separately, a custom MSD (MesoScaleDiscovery, L15XA-3) plate for detection of human MK2 was prepared by coating the plate with the commercial AbCam ab247272 reagent in 1×Phosphate Buffered Saline at 40 microlitres per well and incubated at 4 degrees Celsius overnight. The next day, the MSD plate was washed with 150 microlitres of Tween buffered saline, blocked with MSD blocking buffer (3% Blocker A from MSD), and washed again.
as §1, §2, §3

CN1CC2(CNC(=O)c3c2[nH]c2c3CCc3cnc(-c4ccc(CN5CCC(OCC#Cc6ccc7c(c6)n(C)c(=O)n7C6CCC(=O)NC6=O)CC5)cc4F)cc3-2)C1 (stereo not shown) [Compound I-1]
Dmax (MK2 [1]): < 50%
DC50 (MK2 [1]): > 100 nM
Dmax (MK2 [2]): < 50%
DC50 (MK2 [2]): > 100 nM

CN1CC2(CNC(=O)c3c2[nH]c2c3CCc3cnc(-c4ccc(CN5CCC(OCC#Cc6cccc7c6n(C)c(=O)n7C6CCC(=O)NC6=O)CC5)cc4F)cc3-2)C1 (stereo not shown) [Compound I-2]
Dmax (MK2 [1]): < 50%
DC50 (MK2 [1]): > 100 nM
Dmax (MK2 [2]): < 50%
DC50 (MK2 [2]): > 100 nM

C[C@@H]1CNc2c(sc3ccc4nc(-c5cccc(N6CCN(C(=O)COCCOCCc7cccc8c7n(C)c(=O)n8C7CCC(=O)NC7=O)CC6)c5)ccc4c23)C(=O)N1 (stereo partly shown) [Compound I-34]
Dmax (MK2 [1]): > 75%
DC50 (MK2 [1]): < 1 nM
Dmax (MK2 [2]): > 75%
DC50 (MK2 [2]): < 1 nM

C[C@@H]1CNc2c(sc3ccc4nc(-c5cccc(N6CCN(C(=O)COCCOCCOCCOCCc7ccc8c(c7)n(C)c(=O)n8C7CCC(=O)NC7=O)CC6)c5)ccc4c23)C(=O)N1 (stereo partly shown) [Compound I-36]
Dmax (MK2 [1]): > 75%
DC50 (MK2 [1]): 1 to 10 nM
Dmax (MK2 [2]): > 75%
DC50 (MK2 [2]): 1 to 10 nM

C[C@@H]1CNc2c(sc3ccc4nc(-c5ccc(N6CCN(C(=O)COCCOCCOCCOCCc7ccc8c(c7)n(C)c(=O)n8C7CCC(=O)NC7=O)CC6)cc5)ccc4c23)C(=O)N1 (stereo partly shown) [Compound I-43]
Dmax (MK2 [1]): > 75%
DC50 (MK2 [1]): < 1 nM
Dmax (MK2 [2]): > 75%
DC50 (MK2 [2]): < 1 nM

C[C@@H]1CNc2c(sc3ccc4nc(-c5cccc(C#CCCNC(=O)CCCCCCCCCc6ccc7c(c6)n(C)c(=O)n7C6CCC(=O)NC6=O)c5)ccc4c23)C(=O)N1 (stereo partly shown) [Compound I-45]
Dmax (MK2 [1]): > 75%
DC50 (MK2 [1]): 10 to 100 nM
Dmax (MK2 [2]): > 75%
DC50 (MK2 [2]): 10 to 100 nM

C[C@@H]1CNc2c(sc3ccc4nc(-c5cccc(C#CCCNC(=O)CCCCCCCc6cccc7c6n(C)c(=O)n7C6CCC(=O)NC6=O)c5)ccc4c23)C(=O)N1 (stereo partly shown) [Compound I-48]
Dmax (MK2 [1]): > 75%
DC50 (MK2 [1]): 1 to 10 nM
Dmax (MK2 [2]): > 75%
DC50 (MK2 [2]): 10 to 100 nM

C[C@@H]1CNc2c(sc3ccc4nc(-c5cccc(C#CCCNC(=O)COCCOCCc6ccc7c(c6)n(C)c(=O)n7C6CCC(=O)NC6=O)c5)ccc4c23)C(=O)N1 (stereo partly shown) [Compound I-49]
Dmax (MK2 [1]): > 75%
DC50 (MK2 [1]): 1 to 10 nM
Dmax (MK2 [2]): > 75%
DC50 (MK2 [2]): 1 to 10 nM

C[C@@H]1CNc2c(sc3ccc4nc(-c5cccc(C#CCNC(=O)COCCOCCc6cccc7c6n(C)c(=O)n7C6CCC(=O)NC6=O)c5)ccc4c23)C(=O)N1 (stereo partly shown) [Compound I-50]
Dmax (MK2 [1]): > 75%
DC50 (MK2 [1]): 1 to 10 nM
Dmax (MK2 [2]): > 75%
DC50 (MK2 [2]): 1 to 10 nM

C[C@@H]1CNc2c(sc3ccc4nc(-c5cccc(C#CCCNC(=O)COCCOCCOCCOCCc6ccc7c(c6)n(C)c(=O)n7C6CCC(=O)NC6=O)c5)ccc4c23)C(=O)N1 (stereo partly shown) [Compound I-51]
Dmax (MK2 [1]): > 75%
DC50 (MK2 [1]): 1 to 10 nM
Dmax (MK2 [2]): > 75%
DC50 (MK2 [2]): 1 to 10 nM

C[C@@H]1CNc2c(sc3ccc4nc(-c5ccc(C#CCCNC(=O)CCCCCCCCCc6ccc7c(c6)n(C)c(=O)n7C6CCC(=O)NC6=O)cc5)ccc4c23)C(=O)N1 (stereo partly shown) [Compound I-53]
Dmax (MK2 [1]): > 75%
DC50 (MK2 [1]): 10 to 100 nM
Dmax (MK2 [2]): 50 to 75%
DC50 (MK2 [2]): 10 to 100 nM

C[C@@H]1CNc2c(sc3ccc4nc(-c5ccc(C#CCCNC(=O)CCCCCCCCCc6cccc7c6n(C)c(=O)n7C6CCC(=O)NC6=O)cc5)ccc4c23)C(=O)N1 (stereo partly shown) [Compound I-54]
Dmax (MK2 [1]): > 75%
DC50 (MK2 [2]): 10 to 100 nM

C[C@@H]1CNc2c(sc3ccc4nc(-c5ccc(C#CCCNC(=O)CCCCCCCc6ccc7c(c6)n(C)c(=O)n7C6CCC(=O)NC6=O)cc5)ccc4c23)C(=O)N1 (stereo partly shown) [Compound I-55]
Dmax (MK2 [1]): > 75%
DC50 (MK2 [1]): 1 to 10 nM
Dmax (MK2 [2]): > 75%
DC50 (MK2 [2]): 1 to 10 nM

C[C@@H]1CNc2c(sc3ccc4nc(-c5ccc(CNC(=O)CCCCCCCCCc6cccc7c6n(C)c(=O)n7C6CCC(=O)NC6=O)cc5)ccc4c23)C(=O)N1 (stereo partly shown) [Compound I-86]
Dmax (MK2 [1]): > 75%
DC50 (MK2 [1]): 1 to 10 nM
Dmax (MK2 [2]): > 75%
DC50 (MK2 [2]): 1 to 10 nM

C[C@@H]1CNc2c(sc3ccc4nc(-c5ccc(CNC(=O)CCCCCCCc6ccc7c(c6)n(C)c(=O)n7C6CCC(=O)NC6=O)cc5)ccc4c23)C(=O)N1 (stereo partly shown) [Compound I-87]
Dmax (MK2 [1]): > 75%
DC50 (MK2 [1]): 1 to 10 nM
Dmax (MK2 [2]): > 75%
DC50 (MK2 [2]): 1 to 10 nM

C[C@@H]1CNc2c(sc3ccc4nc(-c5ccc(CNC(=O)CCCCCCCc6cccc7c6n(C)c(=O)n7C6CCC(=O)NC6=O)cc5)ccc4c23)C(=O)N1 (stereo partly shown) [Compound I-88]
Dmax (MK2 [1]): > 75%
DC50 (MK2 [1]): 1 to 10 nM
Dmax (MK2 [2]): > 75%
DC50 (MK2 [2]): 1 to 10 nM

C[C@@H]1CNc2c(sc3ccc4nc(-c5ccc(CNC(=O)COCCOCCOCCOCCc6cccc7c6n(C)c(=O)n7C6CCC(=O)NC6=O)cc5)ccc4c23)C(=O)N1 (stereo partly shown) [Compound I-92]
Dmax (MK2 [1]): > 75%
DC50 (MK2 [1]): 1 to 10 nM
Dmax (MK2 [2]): > 75%
DC50 (MK2 [2]): 1 to 10 nM

C[C@@H]1CNc2c(sc3ccc4nc(-c5cccc(N6CCN(CCCc7cccc8c7n(C)c(=O)n8C7CCC(=O)NC7=O)CC6)c5)ccc4c23)C(=O)N1 (stereo partly shown) [Compound I-93]
Dmax (MK2 [1]): > 75%
DC50 (MK2 [1]): 1 to 10 nM
Dmax (MK2 [2]): > 75%
DC50 (MK2 [2]): < 1 nM

C[C@@H]1CNc2c(sc3ccc4nc(-c5cccc(N6CCN(CCCCCc7cccc8c7n(C)c(=O)n8C7CCC(=O)NC7=O)CC6)c5)ccc4c23)C(=O)N1 (stereo partly shown) [Compound I-94]
Dmax (MK2 [1]): > 75%
DC50 (MK2 [1]): 1 to 10 nM
Dmax (MK2 [2]): > 75%
DC50 (MK2 [2]): < 1 nM

C[C@@H]1CNc2c(sc3ccc4nc(-c5cccc(N6CCN(CCCCCCCc7cccc8c7n(C)c(=O)n8C7CCC(=O)NC7=O)CC6)c5)ccc4c23)C(=O)N1 (stereo partly shown) [Compound I-95]
Dmax (MK2 [1]): > 75%
DC50 (MK2 [1]): 1 to 10 nM
Dmax (MK2 [2]): > 75%
DC50 (MK2 [2]): < 1 nM

C[C@@H]1CNc2c(sc3ccc4nc(-c5cccc(N6CCC(CN7CCC(c8cccc9c8n(C)c(=O)n9C8CCC(=O)NC8=O)CC7)CC6)c5)ccc4c23)C(=O)N1 (stereo partly shown) [Compound I-96]
Dmax (MK2 [1]): > 75%
DC50 (MK2 [1]): 1 to 10 nM
Dmax (MK2 [2]): > 75%
DC50 (MK2 [2]): < 1 nM

C[C@@H]1CNc2c(sc3ccc4nc(-c5ccc(N6CCC(CN7CCC(c8cccc9c8n(C)c(=O)n9C8CCC(=O)NC8=O)CC7)CC6)cc5)ccc4c23)C(=O)N1 (stereo partly shown) [Compound I-98]
Dmax (MK2 [1]): > 75%
DC50 (MK2 [1]): < 1 nM
Dmax (MK2 [2]): > 75%
DC50 (MK2 [2]): < 1 nM

C[C@@H]1CNc2c(sc3ccc4nc(-c5ccc(N6CCC(CN7CCC(c8cccc9c8n(C)c(=O)n9C8CCC(=O)NC8=O)CC7)CC6)nc5)ccc4c23)C(=O)N1 (stereo partly shown) [Compound I-99]
Dmax (MK2 [1]): > 75%
DC50 (MK2 [1]): < 1 nM
Dmax (MK2 [2]): > 75%
DC50 (MK2 [2]): < 1 nM

C[C@@H]1CNc2c(sc3ccc4nc(-c5cncc(N6CCN(C(=O)COCCOCCc7cccc8c7n(C)c(=O)n8C7CCC(=O)NC7=O)CC6)c5)ccc4c23)C(=O)N1 (stereo partly shown) [Compound I-100]
Dmax (MK2 [1]): > 75%
DC50 (MK2 [1]): 1 to 10 nM
Dmax (MK2 [2]): > 75%
DC50 (MK2 [2]): 1 to 10 nM
